Measurements as given in patent US6479531B1, “Gastrin and cholecystokinin receptor ligands” (James Black Foundation Limited, priority 1998, dated 2002).
Where a name gives a salt, the structure may show the parent alone.

Target: T1, gastrin receptor (Rattus norvegicus, UniProt P30553)
T1 construct: The stomach was excised and flushed with ca. 1 ml of unbuffered physiological saline solution; from tissue; host or cells: isolated whole stomach of immature rats (ca. 21 days old)
T1 sequence (P30553 1-452): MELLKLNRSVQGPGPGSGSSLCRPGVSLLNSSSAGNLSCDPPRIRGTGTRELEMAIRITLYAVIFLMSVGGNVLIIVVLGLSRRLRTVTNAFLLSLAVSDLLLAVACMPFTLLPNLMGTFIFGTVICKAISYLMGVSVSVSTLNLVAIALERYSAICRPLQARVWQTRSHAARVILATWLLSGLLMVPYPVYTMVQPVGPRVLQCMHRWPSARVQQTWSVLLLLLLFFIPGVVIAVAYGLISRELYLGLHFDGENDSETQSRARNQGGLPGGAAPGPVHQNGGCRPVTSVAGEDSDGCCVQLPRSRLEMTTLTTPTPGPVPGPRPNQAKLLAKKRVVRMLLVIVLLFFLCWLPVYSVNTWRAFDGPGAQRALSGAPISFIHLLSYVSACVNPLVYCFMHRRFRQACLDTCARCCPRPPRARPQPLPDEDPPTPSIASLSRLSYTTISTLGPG
Assay: gastrin antagonist activity in immature rat stomach assay (pentagastrin dose-response, acid secretion)
Settings: isolated immature rat stomach, cumulative pentagastrin dose-response curves; for Kb: read-out: Gastrin pKb (converted)
Summary of the method: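 Gastrin antagonism was measured as the effect on cumulative pentagastrin dose-response curves of acid output, recorded by pH electrode in the perfusate of an excised immature rat stomach (ca. 21 days old). Test compound was placed in the serosal bath (37°, 3×10^−8 M 5-methylfurmethide) 60 min before pentagastrin.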

Compound	Kb	Gastrin pKb
CC(=O)NC(C(=O)O)c1cccc(NC(=O)c2nc(C3CCCCC3)[nH]c2CCC23CC4CC(CC(C4)C2)C3)c1 (racemic) [Example 264, (±)-Acetylamino-(3-{[5-(2-adamantan-1-yl-ethyl)-2-cyclohexyl-1H-imidazole-4-carbonyl]-amino}-phenyl)-acetic Acid]	871 nM	
O=C(O)c1cccc(NC(=O)c2nc(-c3c(Cl)cccc3Cl)[nH]c2COC23CC4CC(CC(C4)C2)C3)c1 [Example 311, 3-{[5-(Adamantan-1-yloxymethyl)-2-(2,6-dichloro-phenyl)-1H-imidazole-4-carbonyl]-amino}-benzoic Acid]	8.71 nM	
O=C(O)c1cccc(NC(=O)c2nc(C34C=CC(CC3)CC4)[nH]c2COC23CC4CC(CC(C4)C2)C3)c1 [Example 225, 3-{[5-(Adamantan-1-yloxymethyl)-2-bicyclo[2.2.2]oct-2-en-1-yl-1H-imidazole-4-carbonyl]-amino}-benzoic Acid]	0.661 nM	
Cc1ccccc1-c1nc(CCc2cccc(C(=O)O)c2)c(CCC23CC4CC(CC(C4)C2)C3)[nH]1 [Example 280, 3-{2-[5-(2-Adamantan-1-yl-ethyl)-2-o-tolyl-1H-imidazol-4-yl]-ethyl}-benzoic Acid]	1820 nM	
O=C(O)Cc1c(F)ccc(NC(=O)c2nc(C3CCCCC3)[nH]c2CCC23CC4CC(CC(C4)C2)C3)c1F [Example 270, (3-{[5-(2-Adamantan-1-yl-ethyl)-2-cyclohexyl-1H-imidazole-4-carbonyl]-amino}-2,6-difluoro-phenyl)-acetic Acid]	195 nM	
CCOC(=O)Cn1c(-c2ccccc2C)nc(C(=O)Nc2cccc(C(=O)O)c2)c1CCC12CC3CC(CC(C3)C1)C2 [Example 250, 3-{[5-(2-Adamantan-1-yl-ethyl)-1-ethoxycarbonylmethyl-2-o-tolyl-1H-imidazole-4-carbonyl]-amino}-benzoic Acid]	186 nM	
Cc1ccc(NC(=O)c2nc(-c3ccccc3C)[nH]c2COC23CC4CC(CC(C4)C2)C3)cc1C(=O)O [Example 305, 5-{[5-(Adamantan-1-yloxymethyl)-2-o-tolyl-1H-imidazole-4-carbonyl]-amino}-2-methyl-benzoic Acid]	10 nM	
CC(=O)NC(Cc1cccc(NC(=O)c2nc(C3CCCCC3)[nH]c2CCC23CC4CC(CC(C4)C2)C3)c1)C(=O)O (racemic) [Example 265, (±)-2-Acetylamino-3-(3-{[5-(2-adamantan-1-yl-ethyl)-2-cyclohexyl-1H-imidazole-4-carbonyl]-amino}-phenyl)-propionic Acid]	148 nM	
O=C(O)CCc1ccc(NC(=O)c2nc(C3CCCCC3)[nH]c2CCC23CC4CC(CC(C4)C2)C3)cc1 [Example 283, 3-(4-{[5-(2-Adamantan-1-yl-ethyl)-2-cyclohexyl-1H-imidazole-4-carbonyl]-amino}-phenyl)-propionic Acid]	1150 nM	
Cc1ccc(NC(=O)c2nc(C3CCCCC3)[nH]c2CCC23CCC(CC2)CC3)cc1C(=O)O [Example 176, 5-{[5-(2-Bicyclo[2.2.2]oct-1-yl-ethyl)-2-cyclohexyl-1H-imidazole-4-carbonyl]-amino}-2-methyl-benzoic Acid]	6.61 nM	
C[C@H](NC(=O)c1cccc(NC(=O)c2nc(C3CCCCC3)[nH]c2CCC23CC4CC(CC(C4)C2)C3)c1)C(=O)O [Example 272, (S)-2-(3-{[5-(2-Adamantan-1-yl-ethyl)-2-cyclohexyl-1H-imidazole-4-carbonyl]-amino}-benzoylamino)-propionic Acid]	186 nM	
O=C(O)c1cccc(NC(=O)c2nc(C3C4CCCC3CCC4)[nH]c2CCC23CC4CC(CC(C4)C2)C3)c1 (stereo not shown) [Example 208, 3-([5-(2-Adamantan-1-yl-ethyl)-2-bicyclo[3.3.1]non-9-yl-1H-imidazole-4-carbonyl]-amino}-benzoic Acid]	3.47 nM	
O=C(O)c1cccc(NC(=O)c2nc([C@H]3CC4C=C[C@H]3C4)[nH]c2COC23CC4CC(CC(C4)C2)C3)c1 [Example 295, exo-3-{[5-(Adamantan-1-yloxymethyl)-2-((1R,2S)-bicyclo[2.2.1]hept-5-en-2-yl)-1H-imidazole-4-carbonyl]-amino}-benzoic Acid]		8.61
O=C(Nc1cccc(C(=O)N2CCC[C@H]2C(=O)O)c1)c1nc(C2CCCCC2)[nH]c1CCC12CC3CC(CC(C3)C1)C2 [Example 285, (S)-1-(3-{[5-(2-Adamantan-1-yl-ethyl)-2-cyclohexyl-1H-imidazole-4-carbonyl]-amino}-benzoyl)-pyrrolidine-2-carboxylic Acid]	1000 nM	
O=C(Nc1cccc(CC(O)C(=O)O)c1)c1nc(C2CCCCC2)[nH]c1CCC12CC3CC(CC(C3)C1)C2 (racemic) [Example 260, (±)-(3-{[5-(2-Adamantan-1-yl-ethyl)-2-cyclohexyl-1H-imidazole-4-carbonyl]-amino}-phenyl)-2-hydroxy-propionic Acid]		7.01
O=C(O)c1cccc(NC(=O)c2nc(C3(CO)CCCCC3)[nH]c2CCC23CC4CC(CC(C4)C2)C3)c1 [Example 204, 3-{[5-(2-Adamantan-1-yl-ethyl)-2-(1-hydroxymethyl-cyclohexyl)-1H-imidazole-4-carbonyl]-amino}-benzoic Acid]	5.75 nM	
Cc1ccc(NC(=O)c2nc(C3CCCCC3)[nH]c2COCC23CC4CC(CC(C4)C2)C3)cc1C(=O)O [Example 310, 5-{[5-(Adamantan-1-ylmethoxymethyl)-2-cyclohexyl-1H-imidazole-4-carbonyl]-amino}-2-methyl-benzoic Acid]	115 nM	
Cc1ccc(NC(=O)c2nc(C34C=CC(CC3)CC4)[nH]c2COC23CC4CC(CC(C4)C2)C3)cc1C(=O)O [Example 301, 5-{[5-(Adamantan-1-yloxymethyl)-2-bicyclo[2.2.2]oct-2-en-1-yl-1H-imidazole-4-carbonyl]-amino}-2-methyl-benzoic Acid]	2.63 nM	
CC1(c2nc(C(=O)Nc3cccc(C(=O)O)c3)c(COC34CC5CC(CC(C5)C3)C4)[nH]2)CCCCC1 [Example 303, 3-{[5-(Adamantan-1-yloxymethyl)-2-(1-methyl-cyclohexyl)-1H-imidazole-4-carbonyl]-amino}-benzoic Acid]	11.7 nM	
O=C(O)Cc1cccc(NC(=O)c2nc(C3CCCCCC3)[nH]c2COC23CC4CC(CC(C4)C2)C3)c1 [Example 229, (3-{[5-(Adamantan-1-yloxymethyl)-2-cycloheptyl-1H-imidazole-4-carbonyl]-amino}-phenyl)-acetic Acid]	35.5 nM	
Cc1cc(C)c(-c2nc(C(=O)Nc3cccc(CC(=O)O)c3)c(COC34CC5CC(CC(C5)C3)C4)[nH]2)c(C)c1 [Example 227, (3-{[5-(Adamantan-1-yloxymethyl)-2-(2,4,6-trimethyl-phenyl)-1H-imidazole-4-carbonyl]-amino}-phenyl)-acetic Acid]	52.5 nM	
(3-{[5-(Adamantan-1-yloxymethyl)-2-cyclohet-4-enyl-1H-imidazole-4-carbonyl]-amino}-phenyl)-acetic Acid [Example 231]		7.49
O=C(O)c1cccc(NC(=O)c2c(COC34CC5CC(CC(C5)C3)C4)nc(C34CCC(CC3)CC4)n2O)c1 [Example 314, 3-{[5-(Adamantan-1-yloxymethyl)-2-bicyclo[2.2.2]oct-1-yl-3-hydroxy-3H-imidazole-4-carbonyl]-amino}-benzoic Acid]	6.31 nM	
O=C(O)c1cc(NC(=O)c2nc(C34CCC(CC3)CC4)[nH]c2COC23CC4CC(CC(C4)C2)C3)ccc1F [Example 223, 5-{[5-(Adamantan-1-yloxymethyl)-2-bicyclo[2.2.2]oct-1-yl-1H-imidazole-4-carbonyl]-amino}-2-fluoro-benzoic Acid]	0.776 nM	
Cc1ccccc1-c1nc(CCC23CC4CC(CC(C4)C2)C3)c(C=Cc2cccc(C(=O)O)c2)n1C [Example 276, 3-{2-[5-(2-Adamantan-1-yl-ethyl)-3-methyl-2-o-tolyl-3H-imidazol-4-yl]-vinyl}-benzoic Acid]	1170 nM	
O=C(O)Cc1cccc(NC(=O)c2nc(C3CC4CCC3C4)[nH]c2CCC23CC4CC(CC(C4)C2)C3)c1 (racemic) [Example 210, (±)-exo-(3-{[5-(2-Adamantan-1-yl-ethyl)-2-bicyclo[2.2.1]hept-2-yl-1H-imidazole-4-carbonyl]-amino}-phenyl)-acetic Acid]		6.89
Cc1cc(C)c(-c2nc(C(=O)Nc3cccc(CC(=O)O)c3)c(CCC34CC5CC(CC(C5)C3)C4)[nH]2)c(C)c1 [Example 157, (3-{[5-(2-Adamantan-1-yl-ethyl)-2-(2,4,6-trimethyl-phenyl)-1H-imidazole-4-carbonyl]-amino}-phenyl)-acetic Acid]	219 nM	
O=C(O)CCc1cccc(NC(=O)c2nc(C3CCCCC3)[nH]c2CCC23CC4CC(CC(C4)C2)C3)c1 [Example 258, 3-(3-{[5-(2-Adamantan-1-yl-ethyl)-2-cyclohexyl-1H-imidazole-4-carbonyl]-amino}-phenyl)-propionic Acid Trifluoroacetic Acid Salt]	204 nM	
